Tests used:
Test in all cases: relative viability (nuclei count vs DMSO), 5 days (fraction); higher = more cells survive
Erlotinib + Trametinib = compound: C#Cc1cccc(Nc2ncnc3cc(OCCOC)c(OCCOC)cc23)c1 [Erlotinib] + CC(=O)Nc1cccc(-n2c(=O)n(C3CC3)c(=O)c3c(Nc4ccc(I)cc4F)n(C)c(=O)c(C)c32)c1 [Trametinib] (partner 0.02 µM)
How it was run: (§1)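 Relative viability was taken as the ratio of nuclei in treated wells to nuclei in vehicle wells. Lung cancer cell lines in 1536-well plates received compounds by pin tool one day after seeding, either one drug alone or a fixed anchor-drug dose plus five library-drug doses (not always all listed) in √10 steps. Nuclei were counted on 4× images after 5 days of treatment, and values are medians of duplicate plates.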

Erlotinib + AZD7762 = compound: C#Cc1cccc(Nc2ncnc3cc(OCCOC)c(OCCOC)cc23)c1 [Erlotinib] + NC(=O)Nc1cc(-c2cccc(F)c2)sc1C(=O)N[C@H]1CCCNC1 [AZD7762] (partner 0.2 µM)
How it was run: as §1

AT9283 + Bortezomib = compound: O=C(Nc1c[nH]nc1-c1nc2ccc(CN3CCOCC3)cc2[nH]1)NC1CC1 [AT9283] + CC(C)C[C@H](NC(=O)[C@H](Cc1ccccc1)NC(=O)c1cnccn1)B(O)O [Bortezomib] (partner 0.002 µM)
How it was run: as §1

AT9283 + Pictilisib = compound: O=C(Nc1c[nH]nc1-c1nc2ccc(CN3CCOCC3)cc2[nH]1)NC1CC1 [AT9283] + CS(=O)(=O)N1CCN(Cc2cc3nc(-c4cccc5[nH]ncc45)nc(N4CCOCC4)c3s2)CC1 [Pictilisib] (partner 1 µM)
How it was run: as §1

AT9283 + Tozasertib = compound: O=C(Nc1c[nH]nc1-c1nc2ccc(CN3CCOCC3)cc2[nH]1)NC1CC1 [AT9283] + Cc1cc(Nc2cc(N3CCN(C)CC3)nc(Sc3ccc(NC(=O)C4CC4)cc3)n2)n[nH]1 [Tozasertib] (partner 0.1 µM)
How it was run: as §1

| Cell Line | relative viability (Erlotinib + Trametinib; first compound 0.02 µM) | relative viability (Erlotinib + Trametinib; first compound 0.2 µM) | relative viability (Erlotinib + Trametinib; first compound 0.6325 µM) | relative viability (Erlotinib + Trametinib; first compound 2 µM) | relative viability (Erlotinib + AZD7762; first compound 0.02 µM) | relative viability (Erlotinib + AZD7762; first compound 0.2 µM) | relative viability (Erlotinib + AZD7762; first compound 0.6325 µM) | relative viability (Erlotinib + AZD7762; first compound 2 µM) | relative viability (AT9283 + Bortezomib; first compound 0.003 µM) | relative viability (AT9283 + Bortezomib; first compound 0.03 µM) | relative viability (AT9283 + Bortezomib; first compound 0.09487 µM) | relative viability (AT9283 + Bortezomib; first compound 0.3 µM) | relative viability (AT9283 + Pictilisib; first compound 0.003 µM) | relative viability (AT9283 + Pictilisib; first compound 0.03 µM) | relative viability (AT9283 + Pictilisib; first compound 0.09487 µM) | relative viability (AT9283 + Pictilisib; first compound 0.3 µM) | relative viability (AT9283 + Tozasertib; first compound 0.003 µM) | relative viability (AT9283 + Tozasertib; first compound 0.03 µM) | relative viability (AT9283 + Tozasertib; first compound 0.09487 µM) | relative viability (AT9283 + Tozasertib; first compound 0.3 µM) |
| --- | --- | --- | --- | --- | --- | --- | --- | --- | --- | --- | --- | --- | --- | --- | --- | --- | --- | --- | --- | --- |
| HCC-78 | 0.768 | 0.524 | 0.683 | 0.58 | 0.5 | 0.55 | 0.524 | 0.369 | 0.425 | 0.472 | 0.237 | 0.245 | 0.211 | 0.218 | 0.123 | 0.151 | 0.501 | 0.354 | 0.267 | 0.291 |
| RERF-LC-KJ | 0.913 | 0.774 | 0.799 | 0.613 | 0.846 | 0.944 | 0.949 | 0.608 | 1.02 | 0.793 | 0.526 | 0.296 | 0.627 | 0.24 | 0.171 | 0.164 | 0.42 | 0.242 | 0.203 | 0.247 |
| HOP-62 | 0.35 | 0.364 | 0.452 | 0.36 | 0.702 | 0.638 | 0.541 |  | 0.593 | 0.651 | 0.68 | 0.158 | 0.645 | 0.351 | 0.19 | 0.146 | 0.34 | 0.263 | 0.213 | 0.265 |
| NCI-H1755 | 0.793 | 0.774 | 0.816 | 0.737 | 0.487 | 0.438 | 0.499 | 0.379 | 0.983 | 0.91 | 0.498 | 0.529 | 0.437 | 0.395 | 0.296 | 0.261 | 0.624 | 0.469 | 0.419 | 0.367 |
| NCI-H2126 | 0.569 | 0.467 | 0.441 | 0.496 | 1.03 | 1.01 | 0.892 | 0.688 | 1.11 | 1.09 | 1.1 | 0.528 | 0.48 | 0.493 | 0.375 | 0.26 | 0.788 | 0.506 | 0.341 | 0.313 |
| A-427 | 0.885 | 0.752 | 0.882 | 0.749 | 0.735 | 0.763 | 0.843 | 0.767 | 0.977 | 0.427 | 0.216 | 0.188 | 0.744 | 0.606 | 0.19 | 0.208 | 0.186 | 0.179 | 0.168 | 0.161 |

— the supplement of paper PMC10307832
